Source: PubChem BioAssay AID1963834 (Molecular Pharmacology Branch, DTP, NCI, 2024)

Tested on: 873145-292-R-J1-PDC complex spheroid viability
Assay: Anticancer human tumor 873145-292-R-J1-PDC patient-derived renal clear cell carcinoma cell line growth inhibition [POLQ]
Conditions: for IC50: curve of first compound; for viability, T/C: stronger effect = lower value
Procedure, shortened: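 Patient-derived tumour cells were co-cultured with HUVEC and mesenchymal stem cells as multicellular spheroids at 37 °C. They were treated with POLQ inhibitors (novobiocin, ART-558, RP6685) alone or combined with other agents. Top concentrations were at or near clinical Cmax (otherwise 10 microM; SN-38 at 1 microM), decreasing in half-log steps.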

[1] = second compound 0.0316 µM, first compound 0.0316 µM
[2] = second compound 0.0316 µM, first compound 0.1 µM
[3] = second compound 0.0316 µM, first compound 0.316 µM
[4] = second compound 0.0316 µM, first compound 1 µM
[5] = second compound 0.0316 µM, first compound 3.16 µM
[6] = second compound 0.0316 µM, first compound 10 µM
[7] = second compound 0.1 µM, first compound 0.0316 µM
[8] = second compound 0.1 µM, first compound 0.1 µM
[9] = second compound 0.1 µM, first compound 0.316 µM
[10] = second compound 0.1 µM, first compound 1 µM
[11] = second compound 0.1 µM, first compound 3.16 µM
[12] = second compound 0.1 µM, first compound 10 µM
[13] = second compound 0.316 µM, first compound 0.0316 µM
[14] = second compound 0.316 µM, first compound 0.1 µM
[15] = second compound 0.316 µM, first compound 0.316 µM
[16] = second compound 0.316 µM, first compound 1 µM
[17] = second compound 0.316 µM, first compound 3.16 µM
[18] = second compound 0.316 µM, first compound 10 µM
[19] = second compound 1 µM, first compound 0.0316 µM
[20] = second compound 1 µM, first compound 0.1 µM
[21] = second compound 1 µM, first compound 0.316 µM
[22] = second compound 1 µM, first compound 1 µM
[23] = second compound 1 µM, first compound 3.16 µM
[24] = second compound 1 µM, first compound 10 µM
[25] = second compound 3.16 µM, first compound 0.0316 µM
[26] = second compound 3.16 µM, first compound 0.1 µM
[27] = second compound 3.16 µM, first compound 0.316 µM
[28] = second compound 3.16 µM, first compound 1 µM
[29] = second compound 3.16 µM, first compound 3.16 µM
[30] = second compound 3.16 µM, first compound 10 µM
[31] = second compound 10 µM, first compound 0.0316 µM
[32] = second compound 10 µM, first compound 0.1 µM
[33] = second compound 10 µM, first compound 0.316 µM
[34] = second compound 10 µM, first compound 1 µM
[35] = second compound 10 µM, first compound 3.16 µM
[36] = second compound 10 µM, first compound 10 µM
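Further: spheroids exposed to compounds for 7 days before viability readout.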
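Wherever viability, T/C is given: luminescence signal used as surrogate for viable cell content; 100% = DMSO vehicle control viability.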

CCCS(=O)(=O)Nc1ccc(F)c(C(=O)c2c[nH]c3ncc(-c4ccc(Cl)cc4)cc23)c1F + Cc1cccc(N(C)C(=O)C2C(O)CCN2c2nc(C)cc(C(F)(F)F)c2C#N)c1
IC50 (second compound 0.0316 µM): > 10 µM | IC50 (second compound 0.1 µM): > 10 µM | IC50 (second compound 0.316 µM): > 10 µM | IC50 (second compound 1 µM): > 10 µM | IC50 (second compound 3.16 µM): > 10 µM | IC50 (second compound 10 µM): > 10 µM | viability, T/C [1]: 115% | viability, T/C [2]: 110% | viability, T/C [3]: 113% | viability, T/C [4]: 118% | viability, T/C [5]: 89.9% | viability, T/C [6]: 79.3% | viability, T/C [7]: 105% | viability, T/C [8]: 106% | viability, T/C [9]: 90.8% | viability, T/C [10]: 121% | viability, T/C [11]: 105% | viability, T/C [12]: 67.6% | viability, T/C [13]: 117% | viability, T/C [14]: 125% | viability, T/C [15]: 94.4% | viability, T/C [16]: 112% | viability, T/C [17]: 97.4% | viability, T/C [18]: 80.6% | viability, T/C [19]: 98.6% | viability, T/C [20]: 102% | viability, T/C [21]: 103% | viability, T/C [22]: 106% | viability, T/C [23]: 105% | viability, T/C [24]: 68.6% | viability, T/C [25]: 101% | viability, T/C [26]: 111% | viability, T/C [27]: 109% | viability, T/C [28]: 107% | viability, T/C [29]: 105% | viability, T/C [30]: 83.8% | viability, T/C [31]: 103% | viability, T/C [32]: 101% | viability, T/C [33]: 96.1% | viability, T/C [34]: 109% | viability, T/C [35]: 96.8% | viability, T/C [36]: 81.1%

C=CC(=O)N1CCN(c2nc(=O)n(-c3c(C)ccnc3C(C)C)c3nc(-c4c(O)cccc4F)c(F)cc23)C(C)C1 (stereo not drawn) + Nc1ccc(C#CCN(C(=O)Cc2ncc(C(F)(F)F)cc2C(F)(F)F)c2ccc(F)cc2)nn1
IC50 (second compound 0.0316 µM): > 10 µM | IC50 (second compound 0.1 µM): > 10 µM | IC50 (second compound 0.316 µM): > 10 µM | IC50 (second compound 1 µM): > 10 µM | IC50 (second compound 3.16 µM): > 10 µM | IC50 (second compound 10 µM): > 10 µM | viability, T/C [1]: 112% | viability, T/C [2]: 105% | viability, T/C [3]: 106% | viability, T/C [4]: 120% | viability, T/C [5]: 132% | viability, T/C [6]: 134% | viability, T/C [7]: 111% | viability, T/C [8]: 110% | viability, T/C [9]: 117% | viability, T/C [10]: 124% | viability, T/C [11]: 119% | viability, T/C [12]: 128% | viability, T/C [13]: 116% | viability, T/C [14]: 117% | viability, T/C [15]: 103% | viability, T/C [16]: 126% | viability, T/C [17]: 135% | viability, T/C [18]: 123% | viability, T/C [19]: 107% | viability, T/C [20]: 110% | viability, T/C [21]: 107% | viability, T/C [22]: 129% | viability, T/C [23]: 136% | viability, T/C [24]: 126% | viability, T/C [25]: 112% | viability, T/C [26]: 116% | viability, T/C [27]: 113% | viability, T/C [28]: 131% | viability, T/C [29]: 135% | viability, T/C [30]: 139% | viability, T/C [31]: 126% | viability, T/C [32]: 113% | viability, T/C [33]: 119% | viability, T/C [34]: 132% | viability, T/C [35]: 134% | viability, T/C [36]: 142%

CC1COCCN1c1cc(C2(O)CC3CCC(C2)O3)c2cnn(-c3ccn[nH]3)c2n1 (stereo not drawn) + COC1C(OC(N)=O)C(O)C(Oc2ccc3c(O)c(NC(=O)c4ccc(O)c(CC=C(C)C)c4)c(=O)oc3c2C)OC1(C)C
IC50 (second compound 0.0316 µM): 0.423 µM | IC50 (second compound 0.1 µM): 0.562 µM | IC50 (second compound 0.316 µM): 0.311 µM | IC50 (second compound 1 µM): 0.484 µM | IC50 (second compound 3.16 µM): 0.362 µM | IC50 (second compound 10 µM): 0.691 µM | viability, T/C [1]: 90.3% | viability, T/C [2]: 71.8% | viability, T/C [3]: 53.9% | viability, T/C [4]: 40.4% | viability, T/C [5]: 38.6% | viability, T/C [6]: 37.2% | viability, T/C [7]: 85.8% | viability, T/C [8]: 67.2% | viability, T/C [9]: 57.1% | viability, T/C [10]: 43.6% | viability, T/C [11]: 39.3% | viability, T/C [12]: 38.5% | viability, T/C [13]: 86.3% | viability, T/C [14]: 72.9% | viability, T/C [15]: 50.2% | viability, T/C [16]: 40.2% | viability, T/C [17]: 49.5% | viability, T/C [18]: 37.7% | viability, T/C [19]: 84.3% | viability, T/C [20]: 68.6% | viability, T/C [21]: 58.5% | viability, T/C [22]: 38.9% | viability, T/C [23]: 36.3% | viability, T/C [24]: 37% | viability, T/C [25]: 93.8% | viability, T/C [26]: 73.5% | viability, T/C [27]: 52.9% | viability, T/C [28]: 38.3% | viability, T/C [29]: 36.2% | viability, T/C [30]: 38.5% | viability, T/C [31]: 87.7% | viability, T/C [32]: 71.9% | viability, T/C [33]: 58.3% | viability, T/C [34]: 45.6% | viability, T/C [35]: 41.6% | viability, T/C [36]: 40.9%

CC1COCCN1c1cc(C2(S(C)(=N)=O)CC2)nc(-c2ccnc3[nH]ccc23)n1 (stereo not drawn) + Nc1ccc(C#CCN(C(=O)Cc2ncc(C(F)(F)F)cc2C(F)(F)F)c2ccc(F)cc2)nn1
IC50 (second compound 0.0316 µM): > 10 µM | IC50 (second compound 0.1 µM): > 10 µM | IC50 (second compound 0.316 µM): > 10 µM | IC50 (second compound 1 µM): > 10 µM | IC50 (second compound 3.16 µM): > 10 µM | IC50 (second compound 10 µM): > 10 µM | viability, T/C [1]: 103% | viability, T/C [2]: 99.2% | viability, T/C [3]: 102% | viability, T/C [4]: 80.5% | viability, T/C [5]: 73.9% | viability, T/C [6]: 71% | viability, T/C [7]: 107% | viability, T/C [8]: 98.4% | viability, T/C [9]: 82% | viability, T/C [10]: 83.3% | viability, T/C [11]: 88.9% | viability, T/C [12]: 67.8% | viability, T/C [13]: 102% | viability, T/C [14]: 92.8% | viability, T/C [15]: 84.7% | viability, T/C [16]: 92.3% | viability, T/C [17]: 78.2% | viability, T/C [18]: 69.6% | viability, T/C [19]: 90.7% | viability, T/C [20]: 90% | viability, T/C [21]: 90.8% | viability, T/C [22]: 88.5% | viability, T/C [23]: 80.2% | viability, T/C [24]: 64.4% | viability, T/C [25]: 92.2% | viability, T/C [26]: 97.1% | viability, T/C [27]: 101% | viability, T/C [28]: 82.8% | viability, T/C [29]: 82% | viability, T/C [30]: 73.2% | viability, T/C [31]: 105% | viability, T/C [32]: 106% | viability, T/C [33]: 103% | viability, T/C [34]: 110% | viability, T/C [35]: 85.5% | viability, T/C [36]: 81.3%
